Assay results from the supplement of paper PMC10307832.

Experiments:
Experiment in all cases: relative viability (nuclei count vs DMSO), 5 days (fraction); higher = more cells survive
Carfilzomib + OSI-027 = compound: CC(C)C[C@H](NC(=O)[C@H](CCc1ccccc1)NC(=O)CN1CCOCC1)C(=O)N[C@@H](Cc1ccccc1)C(=O)N[C@@H](CC(C)C)C(=O)[C@@]1(C)CO1 [Carfilzomib] + COc1cccc2cc(-c3nc([C@H]4CC[C@H](C(=O)O)CC4)n4ncnc(N)c34)[nH]c12 [OSI-027] (partner 0.5 µM)
Method in brief: (§1)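 Five library-drug doses in √10 steps were combined with a fixed anchor-drug dose, or a single drug was given alone, by pin tool to lung cancer cell lines in 1536-well plates the day after seeding. Nuclei were stained and counted after 5 days. Relative viability is the nuclei count in treated wells over that in vehicle wells, taken as the median of duplicate plates.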

Carfilzomib + Tozasertib = compound: CC(C)C[C@H](NC(=O)[C@H](CCc1ccccc1)NC(=O)CN1CCOCC1)C(=O)N[C@@H](Cc1ccccc1)C(=O)N[C@@H](CC(C)C)C(=O)[C@@]1(C)CO1 [Carfilzomib] + Cc1cc(Nc2cc(N3CCN(C)CC3)nc(Sc3ccc(NC(=O)C4CC4)cc3)n2)n[nH]1 [Tozasertib] (partner 0.1 µM)
Method in brief: as §1

Carfilzomib + Decitabine = compound: CC(C)C[C@H](NC(=O)[C@H](CCc1ccccc1)NC(=O)CN1CCOCC1)C(=O)N[C@@H](Cc1ccccc1)C(=O)N[C@@H](CC(C)C)C(=O)[C@@]1(C)CO1 [Carfilzomib] + Nc1ncn([C@H]2C[C@H](O)[C@@H](CO)O2)c(=O)n1 [Decitabine] (partner 2 µM)
Method in brief: as §1

Crizotinib + Linsitinib = compound: C[C@@H](Oc1cc(-c2cnn(C3CCNCC3)c2)cnc1N)c1c(Cl)ccc(F)c1Cl [Crizotinib] + C[C@]1(O)C[C@@H](c2nc(-c3ccc4ccc(-c5ccccc5)nc4c3)c3c(N)nccn32)C1 [Linsitinib] (partner 1 µM)
Method in brief: as §1

Cell Line | relative viability (Carfilzomib + OSI-027; first compound 0.003162 µM) | relative viability (Carfilzomib + OSI-027; first compound 0.01 µM) | relative viability (Carfilzomib + OSI-027; first compound 0.03162 µM) | relative viability (Carfilzomib + OSI-027; first compound 0.1 µM) | relative viability (Carfilzomib + Tozasertib; first compound 0.003162 µM) | relative viability (Carfilzomib + Tozasertib; first compound 0.01 µM) | relative viability (Carfilzomib + Tozasertib; first compound 0.03162 µM) | relative viability (Carfilzomib + Tozasertib; first compound 0.1 µM) | relative viability (Carfilzomib + Decitabine; first compound 0.001 µM) | relative viability (Carfilzomib + Decitabine; first compound 0.003162 µM) | relative viability (Carfilzomib + Decitabine; first compound 0.01 µM) | relative viability (Carfilzomib + Decitabine; first compound 0.03162 µM) | relative viability (Carfilzomib + Decitabine; first compound 0.1 µM) | relative viability (Crizotinib + Linsitinib; first compound 0.01 µM) | relative viability (Crizotinib + Linsitinib; first compound 0.03162 µM) | relative viability (Crizotinib + Linsitinib; first compound 0.1 µM) | relative viability (Crizotinib + Linsitinib; first compound 0.3162 µM) | relative viability (Crizotinib + Linsitinib; first compound 1 µM) | relative viability (Carfilzomib + OSI-027; first compound 0.001 µM) | relative viability (Carfilzomib + Tozasertib; first compound 0.001 µM)
NCI-H2405 | 0.667 | 0.651 | 0.507 | 0.305 | 0.814 | 0.828 | 0.757 | 0.267 | 0.803 | 0.881 | 0.763 | 0.57 | 0.225 | 0.885 | 0.897 | 0.882 | 1.04 | 0.919 |  | 
NCI-H3122 | 1.05 | 1.07 | 0.872 | 0.154 | 0.428 | 0.418 | 0.38 | 0.132 | 0.451 | 0.441 | 0.421 | 0.462 | 0.216 | 1.02 | 1.03 | 1.08 | 1.01 | 1 | 1.01 | 0.371
PC-3 [JPC-3] | 0.775 | 0.813 | 0.755 | 0.352 | 0.926 | 0.901 | 0.866 | 0.374 | 0.832 | 0.879 | 0.89 | 0.64 | 0.301 | 0.935 | 0.977 | 1.04 | 0.9 | 0.973 | 0.801 | 0.859
PC-14 | 0.962 | 0.603 | 0.0409 | 0.0529 | 0.677 | 0.69 | 0.545 | 0.0359 | 0.198 | 0.273 | 0.23 | 0.0558 | 0.0667 | 0.913 |  | 0.974 | 0.905 | 1.02 | 0.904 | 0.575
RERF-LC-KJ | 0.525 | 0.72 | 0.322 | 0.221 | 0.478 | 0.542 | 0.377 | 0.163 | 0.744 | 0.721 | 0.807 | 0.422 | 0.207 | 0.972 | 0.94 |  | 0.935 |  | 0.551 | 0.501
SK-LU-1 | 0.362 | 0.399 | 0.102 | 0.138 | 0.371 | 0.343 | 0.0891 | 0.109 | 0.591 | 0.713 | 0.625 | 0.262 | 0.23 | 1.07 | 1.12 | 1.22 | 1.14 | 1.11 | 0.36 | 0.342
SK-MES-1 | 0.632 | 0.652 | 0.336 | 0.145 | 1.07 | 0.998 | 0.725 | 0.136 | 0.385 | 0.375 | 0.437 | 0.356 | 0.181 | 1.02 | 1.1 | 1.15 | 0.982 |  | 0.637 | 0.939
SW 1573 | 0.771 | 0.403 | 0.0525 | 0.0647 | 0.253 | 0.23 | 0.0683 | 0.051 | 0.551 | 0.52 | 0.297 | 0.0743 | 0.0554 | 0.707 | 0.73 | 0.802 | 0.802 |  | 0.717 | 0.193
UMC-11 | 0.474 | 0.496 | 0.426 | 0.211 | 0.202 | 0.205 | 0.202 | 0.224 | 0.603 | 0.609 | 0.54 | 0.819 | 0.459 |  | 1.04 |  | 1.16 | 0.96 | 0.503 | 0.206
